Laboratory results reported in article PMC11758266, “Lipid-Modulated, Graduated Inhibition of N-Glycosylation Pathway Priming Suggests Wide Tolerance of ER Proteostasis to Stress” (ACS Central Science, 2024).
Entries after “also recorded” stand apart in the source; their conditions may differ.

Assays:
DPAGT1 = biological target: T1, DPAGT1 (Homo sapiens, UniProt Q9H3H5); test: DPAGT1 radiometric in vitro activity assay (end point, phosphorimaging of radio-TLC); format: biochemical; conditions: for % Activity of DPAGT1 in the presence of a tunicamycin analogue compared to a negative control (GFB): Table S1, analogue 1 µM, DPAGT1 1 µM, dolichyl monophosphate 50 µM, UDP-GlcNAc(1-14C) 50 µM, 37 °C, 21 min, three biological replicates; for DPAGT1 inhibition (in words) / activity at 1 µM: inhibitor 1 µM; for DPAGT1 inhibition (in words): enzyme:inhibitor 1:1, substrates 50 µM; for activity at 1 µM: enzyme:inhibitor 1:1, read-out: retained DPAGT1 activity (% of WT activity)
T1 construct: full-length DPAGT1 bearing an additional tobacco etch virus (TEV) protease-cleavable N-terminal His6 tag; His6 with TEV protease cleavage site ([…]/S leader) (N, cleaved yes); made in house; host or cells: Spodoptera frugiperda Sf9 insect cells (baculovirus, pFB-LIC-Bse vector)
T1 sequence (Q9H3H5 with tags, fused parts or gaps): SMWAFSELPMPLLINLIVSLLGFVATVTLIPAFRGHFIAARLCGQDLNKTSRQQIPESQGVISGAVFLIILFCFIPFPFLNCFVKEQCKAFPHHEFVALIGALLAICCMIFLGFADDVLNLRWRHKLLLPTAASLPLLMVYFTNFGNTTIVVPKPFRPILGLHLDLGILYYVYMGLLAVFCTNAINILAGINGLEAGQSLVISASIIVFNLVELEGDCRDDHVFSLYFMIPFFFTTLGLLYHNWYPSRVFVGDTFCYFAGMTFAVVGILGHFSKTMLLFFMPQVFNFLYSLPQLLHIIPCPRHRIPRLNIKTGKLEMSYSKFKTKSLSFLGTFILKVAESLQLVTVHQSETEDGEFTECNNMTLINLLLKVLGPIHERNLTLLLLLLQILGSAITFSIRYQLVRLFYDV
Description: Figure 2 Design, synthesis and in vitro inhibitory activity of lipid-altered tunicamycins. (A) Structure of DPAGT1 in complex with tunicamycin[21] showing key interactions primarily along TMH5 that in concert with a Trp122 “lid” create the lipid-engagement site (blue). This engagement contrasts with a small, gated pocket below bounded primarily by Leu293 in which only smaller moieties (here an acetamide) are accommodated (red). (B) Guided by this structure, as an apparent snapshot of a Michaelis complex-like mode of binding, modulation at two acyl sites in the core scaffold was explored. […] Semisynthesis allowed generation of graduated lipid tunicamycin analogues through regiochemical differentiation in carbamoylation to generate two key divergent intermediates: Tun-0E,0G and Tun-0E,2G. Subsequent differential acylations allow for generation of both symmetric and asymmetric Tun-XE,YG analogues. Reagents and conditions: (a) Ac2O, pyridine; (b) Boc2O, DMAP, THF; (c) NaOMe, MeOH; (d) 4 M HCl in dioxane, MeOH; (e) HATU, DIPEA, octanoic acid, DMF; (f) HATU, DIPEA, carboxylic acid; (g) HATU, DIPEA, 2 × carboxylic acid. (C) Residual % in vitro activity of DPAGT1 following incubation with analogues [DPAGT1 ([…]), MgCl2 (5 mM), Tun analogue ([…]), dolichol phosphate ([…]), and UDP-GlcNAc(1-^14C) ([…]) in 1% OGNG/CHS/cardiolipin] was assessed through end point assay at 37 °C via phosphorimaging. These were determined on the basis of three biological replicates, each using three technical replicates. Error bars shown are standard deviations.
The intended targeting and graduated modulation of DPAGT1’s PNPT activity was assessed in vitro using a highly pure recapitulated source. Briefly, full-length DPAGT1 bearing an additional tobacco etch virus (TEV) protease-cleavable N-terminal His6 tag was expressed using a baculovirus (DH10Bac)/insect cell (Spodoptera frugiperda Sf9) system using a pFB-LIC-Bse expression vector. DPAGT1 is an integral transmembrane enzyme, and thus, after harvesting and lysis, protein was extracted from the expression host membrane fraction using octyl glucose neopentyl glycol (OGNG) (1% w/v) and cholesterylhemisuccinate (CHS) (0.1% w/v) before isolation and purification by immobilized metal affinity chromatography (IMAC) using a Co^2+-charged (“TALON”) resin and elution with an imidazole gradient. To ensure that there were no confounding effects of the His6 tag, this was then cleaved with TEV protease followed by reverse IMAC and size exclusion chromatography in sequence.
Radiometric bisubstrate analyses allowed excellent sensitivity under the conditions necessary for proper recapitulation of the activity. Purified DPAGT1 (1 μM) was incubated with both substrates, dolichol monophosphate and radiolabeled UDP-N-acetyl-D-[1-^14C]glucosamine, at 50 μM, and the activity was determined directly by end point phosphor detection of product dolichol-PP-N-acetyl-D-[1-^14C]glucosamine formation.
MgCl2, 10 mM imidazole (pH 8.0), 200 mM NaCl , 2 mM TCEP (added fresh), 5% Glycerol, 0.18% OGNG, 0.01 8% CHS, 0.0036% cardiolipin) and the protein was eluted with WB supplemented with 250 mM imidazole (pH 8.0). The eluted protein was desalted using PD-10 columns (GE Healthcare) pre-equilibrated with gel filtration buffer (GFB: 20 mM HEPES (pH […]
cardiolipin). Desalted protein was subsequently treated with 10:1 TEV protease (w:w, protein:enzyme) overnight at 4 ° C. The TEV protease treated protein was separated from the 6-His-tagged enzymes and uncleaved DPAGT1 by incubation for 1 h with Talon resin (prepared as described above) at 4 °C for 1 h. The resin was collected in a column, the flowthrough collected and the protein sample was centrifuged at 21,500 rpm in a Beckman TA25.5 rotor for 10 min at 4 ° C. The supernatant was then concentrated to 0.5 mL using a 30 kDa cutoff PES concentrator (Corning), with mixing every 5 mins during concentration. The […]

ATF4 = ATF4 high-content imaging assay in primary human dermal fibroblasts; format: cell-based; conditions: 6 h, Figures S8–S12
Procedure: A targeted panel of tunicamycin analogues was tested in the ATF4 High Content Imaging assay to assess their ER stress generating ability in a primary cell line. Normal adult human dermal fibroblasts (NHDF-Ad, Lonza) were plated in a 96-well Phenoplate (PerkinElmer) at a seeding density of 10,000 cells per well in fibroblast growth medium (containing fibroblast basal medium, 10% FBS, 0.1% insulin, 0.1% hFGF-B, 0.1% Gentamicin/Amphotericin) and incubated at 37°C, 5% CO2. Treatment with pre-diluted compounds was performed after 24 hrs with final concentrations ranging from 10 µM – 5 nM (final DMSO concentration was 0.3%). Low control (0.3% DMSO final conc.) and high control (0.3 µM tunicamycin final conc.) wells were again included for assay normalization. Treated cells were incubated for 6 hrs at 37°C, 5% CO2 before fixing (4% PFA in PBS, 20 min at room temperature followed by washing (3x) with PBS). Direct ATF4 immunofluorescence staining was then performed, whereby cells were treated with a Coralite Plus 488-conjugated ATF4 Polyclonal antibody (CL488-10835, Proteintech) in a 1:100 dilution of Perm-block buffer (10% FBS, 0.3% TritonX-100 in PBS) for 2 hrs. Nuclei staining was then performed with DRAQ5 dye (ab108410, Abcam) at 1:1000 in PBS. Plates were imaged on a Leica SP8 confocal microscope equipped with 488 nm and 633 nm excitation and images were analysed using script-based algorithms as described for HEK cells above. […]

His-tagged IgG-Fc domain = test: In cell glycoprotein inhibition assay (IgG-Fc expression, SDS-PAGE and Western blot); format: cell-based, human; conditions: HEK293T cells, 3 days, analogue 10 µM down to 0.5 nM (Tun-8E,2G 300 µM down to 15 nM), Figure S13

| Compound | % Activity of DPAGT1 in the presence of a tunicamycin analogue compared to a negative control (GFB) (DPAGT1) [%] | DPAGT1 inhibition (in words) (DPAGT1) | increase in ATF4 (in words) (ATF4) | glycosylation state of expressed IgG-Fc (in words) (His-tagged IgG-Fc domain) | activity at 1 µM (DPAGT1) [%] | glycosylation state of expressed IgG-Fc (in words) (His-tagged IgG-Fc domain; listed as Tun) |
| --- | --- | --- | --- | --- | --- | --- |
| CCCCCCCCC(=O)N[C@H]1[C@H](O[C@H]2O[C@H](CO)[C@@H](O)[C@H](O)[C@H]2NC(=O)CCCCCCCC)O[C@H](C[C@@H](O)[C@H]2O[C@@H](n3ccc(=O)[nH]c3=O)[C@H](O)[C@@H]2O)[C@H](O)[C@@H]1O [Tun-9E,9G] | 79.6 | little to no significant inhibition; also recorded: minimal DPAGT1 inhibition | only Tun itself leads to an increase in ATF4 | expression of intact glycosylated protein |  |  |
| CCCCCCCC(=O)N[C@H]1[C@H](O[C@H]2O[C@H](CO)[C@@H](O)[C@H](O)[C@H]2NC(C)=O)O[C@H](C[C@@H](O)[C@H]2O[C@@H](n3ccc(=O)[nH]c3=O)[C@H](O)[C@@H]2O)[C@H](O)[C@@H]1O [Tun-8E,2G] | 35.4 | increasing inhibitory activity in a graduated manner | only Tun itself leads to an increase in ATF4 | unglycosylated IgG Fc protein is observed; also recorded: expression of non-glycosylated IgG-Fc | 35 |  |
| CCCCCCCCC(=O)N[C@H]1[C@@H](O[C@@H]2O[C@H](C[C@@H](O)[C@H]3O[C@@H](n4ccc(=O)[nH]c4=O)[C@H](O)[C@@H]3O)[C@H](O)[C@H](O)[C@H]2NC(=O)CCC)O[C@H](CO)[C@@H](O)[C@@H]1O [Tun-4E,9G] | 93.6 | little to no significant inhibition; also recorded: minimal DPAGT1 inhibition |  |  |  |  |
| CCCCCCCCC(=O)N[C@H]1[C@H](O[C@H]2O[C@H](CO)[C@@H](O)[C@H](O)[C@H]2NC(=O)CC(C)C)O[C@H](C[C@@H](O)[C@H]2O[C@@H](n3ccc(=O)[nH]c3=O)[C@H](O)[C@@H]2O)[C@H](O)[C@@H]1O [Tun-9E,i5G] | 54.8 | increasing inhibitory activity in a graduated manner |  |  | 55 |  |
| tunicamycin [reference compound] | 0.18 | complete inhibition | leads to an increase in ATF4 | unglycosylated IgG Fc protein is observed |  | expression of non-glycosylated IgG-Fc |
